Results taken from ChEMBL document CHEMBL1143689, “Synthesis and biological evaluation of 3-aryl-3-(4-phenoxy)-propionic acid as a novel series of G protein-coupled receptor 40 agonists” (J Med Chem, 2007).

Columns and labels:
[1] = target: Free fatty acid receptor 1 (Homo sapiens) (UniProt O14842); assay: Agonist activity at human GPR40 expressed in HEK293 cells assessed as effect on calcium flux; assay type: functional, cell-based
[2] = target: Free fatty acid receptor 1 (Homo sapiens) (UniProt O14842); assay: Agonist activity at human GPR40 expressed in HEK293 cells assessed as calcium flux response relative to linoleic acid; assay type: functional, cell-based; parameters: concentration or dose not given beside the values
[3] = target: Free fatty acid receptor 1 (Mus musculus) (UniProt Q76JU9); assay: Agonist activity at GPR40 in mouse MIN6 cells assessed as stimulation of 25 mM glucose-mediated insulin secretion at 30 uM; assay type: functional, cell-based
[4] = target: Free fatty acid receptor 1 (Mus musculus, UniProt Q76JU9); assay: Agonist activity at GPR40 in mouse MIN6 cells assessed as stimulation of 25 mM glucose-mediated insulin secretion; assay type: functional, cell-based
[5] = target: Free fatty acid receptor 1 (Mus musculus) (UniProt Q76JU9); assay: Agonist activity at GPR40 in mouse MIN6 cells assessed as stimulation of 5 mM glucose-mediated insulin secretion at 30 uM; assay type: functional, cell-based
[6] = target: T1, Cytochrome P450 1A2 (Homo sapiens, UniProt P05177); assay: Inhibition of human CYP1A2; assay type: ADME
T1 sequence (P05177 whole entry): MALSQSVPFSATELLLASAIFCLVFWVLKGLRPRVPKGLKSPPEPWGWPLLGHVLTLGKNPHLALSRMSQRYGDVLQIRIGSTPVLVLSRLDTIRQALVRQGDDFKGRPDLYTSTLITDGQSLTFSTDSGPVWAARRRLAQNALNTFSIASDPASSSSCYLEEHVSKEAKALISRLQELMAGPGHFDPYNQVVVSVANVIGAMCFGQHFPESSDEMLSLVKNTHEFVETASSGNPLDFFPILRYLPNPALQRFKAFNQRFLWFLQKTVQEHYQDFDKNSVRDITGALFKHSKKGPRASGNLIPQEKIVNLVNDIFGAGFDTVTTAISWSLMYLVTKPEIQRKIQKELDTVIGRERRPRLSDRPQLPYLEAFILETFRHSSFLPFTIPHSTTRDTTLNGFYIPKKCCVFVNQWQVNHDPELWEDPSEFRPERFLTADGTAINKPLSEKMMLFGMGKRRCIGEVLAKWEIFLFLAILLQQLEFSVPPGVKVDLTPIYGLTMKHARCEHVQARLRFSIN

[7] = target: Cytochrome P450 2C9 (Homo sapiens, UniProt P11712); assay: Inhibition of human CYP2C9; assay type: ADME
[8] = target: Cytochrome P450 2C19 (Homo sapiens, UniProt P33261); assay: Inhibition of human CYP2C19; assay type: ADME
[9] = target: Cytochrome P450 2D6 (Homo sapiens, UniProt P10635); assay: Inhibition of human CYP2D6; assay type: ADME
[10] = target: Cytochrome P450 3A4 (Homo sapiens, UniProt P08684); assay: Inhibition of human CYP3A4; assay type: ADME
[11] = Cmax in rat at 2 mg/kg, iv; assay type: ADME, organism-based; parameters: dose 2 mg/kg, route intravenous; conditions: in vivo
[12] = Cmax in rat at 10 mg/kg, po; assay type: ADME, organism-based; parameters: dose 10 mg/kg, route oral; conditions: in vivo
[13] = Tmax in rat at 2 mg/kg, iv; assay type: ADME, organism-based; parameters: dose 2 mg/kg, route intravenous; conditions: in vivo
[14] = Tmax in rat at 10 mg/kg, po; assay type: ADME, organism-based; parameters: dose 10 mg/kg, route oral; conditions: in vivo
[15] = AUC in rat at 2 mg/kg, iv; assay type: ADME, organism-based; parameters: dose 2 mg/kg, route intravenous; conditions: plasma
[16] = AUC in rat at 10 mg/kg, po; assay type: ADME, organism-based; parameters: dose 10 mg/kg, route oral; conditions: plasma
[17] = Half life in rat at 2 mg/kg, iv; assay type: ADME, organism-based; parameters: dose 2 mg/kg, route intravenous; conditions: in vivo
[18] = Half life in rat at 10 mg/kg, po; assay type: ADME, organism-based; parameters: dose 10 mg/kg, route oral; conditions: in vivo
[19] = Clearance in rat at 2 mg/kg, iv; assay type: ADME, organism-based; parameters: dose 2 mg/kg, route intravenous; conditions: in vivo
[20] = Oral bioavailability in rat at 10 mg/kg, po; assay type: ADME, organism-based; conditions: in vivo

Sequence of Free fatty acid receptor 1 (Mus musculus) (Q76JU9 whole entry): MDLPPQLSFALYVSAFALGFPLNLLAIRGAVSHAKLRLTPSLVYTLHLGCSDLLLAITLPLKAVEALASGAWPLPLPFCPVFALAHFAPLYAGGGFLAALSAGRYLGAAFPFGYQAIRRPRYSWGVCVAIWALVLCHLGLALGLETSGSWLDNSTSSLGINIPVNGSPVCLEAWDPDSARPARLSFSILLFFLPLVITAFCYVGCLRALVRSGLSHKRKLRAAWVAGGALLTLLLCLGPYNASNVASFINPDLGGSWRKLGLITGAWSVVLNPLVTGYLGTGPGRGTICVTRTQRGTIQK
Sequence of Free fatty acid receptor 1 (Homo sapiens) (O14842 whole entry): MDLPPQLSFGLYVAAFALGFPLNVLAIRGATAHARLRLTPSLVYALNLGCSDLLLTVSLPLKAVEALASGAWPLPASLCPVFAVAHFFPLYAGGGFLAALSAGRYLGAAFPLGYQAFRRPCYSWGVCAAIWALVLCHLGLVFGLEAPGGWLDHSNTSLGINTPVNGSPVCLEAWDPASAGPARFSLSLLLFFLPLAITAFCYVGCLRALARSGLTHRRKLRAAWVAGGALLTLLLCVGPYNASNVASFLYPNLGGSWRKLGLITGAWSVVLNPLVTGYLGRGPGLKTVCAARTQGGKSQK
Sequence of Cytochrome P450 2D6 (P10635 whole entry): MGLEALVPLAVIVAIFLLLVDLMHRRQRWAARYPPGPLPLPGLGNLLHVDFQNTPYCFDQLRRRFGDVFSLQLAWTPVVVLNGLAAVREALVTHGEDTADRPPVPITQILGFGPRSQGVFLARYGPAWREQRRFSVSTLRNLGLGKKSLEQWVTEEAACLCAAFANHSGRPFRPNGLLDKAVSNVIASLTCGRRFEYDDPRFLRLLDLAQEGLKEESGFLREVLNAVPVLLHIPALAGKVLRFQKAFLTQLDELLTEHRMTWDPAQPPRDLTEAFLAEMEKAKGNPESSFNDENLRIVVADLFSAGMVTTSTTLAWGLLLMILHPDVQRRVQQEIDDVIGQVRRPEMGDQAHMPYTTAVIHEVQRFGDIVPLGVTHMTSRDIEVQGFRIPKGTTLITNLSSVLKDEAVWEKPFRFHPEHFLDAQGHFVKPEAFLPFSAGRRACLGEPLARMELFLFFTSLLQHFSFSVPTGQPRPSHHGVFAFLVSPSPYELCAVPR
Sequence of Free fatty acid receptor 1 (Q76JU9 whole entry): as the sequence (Q76JU9 whole entry) above
Sequence of Cytochrome P450 2C19 (P33261 whole entry): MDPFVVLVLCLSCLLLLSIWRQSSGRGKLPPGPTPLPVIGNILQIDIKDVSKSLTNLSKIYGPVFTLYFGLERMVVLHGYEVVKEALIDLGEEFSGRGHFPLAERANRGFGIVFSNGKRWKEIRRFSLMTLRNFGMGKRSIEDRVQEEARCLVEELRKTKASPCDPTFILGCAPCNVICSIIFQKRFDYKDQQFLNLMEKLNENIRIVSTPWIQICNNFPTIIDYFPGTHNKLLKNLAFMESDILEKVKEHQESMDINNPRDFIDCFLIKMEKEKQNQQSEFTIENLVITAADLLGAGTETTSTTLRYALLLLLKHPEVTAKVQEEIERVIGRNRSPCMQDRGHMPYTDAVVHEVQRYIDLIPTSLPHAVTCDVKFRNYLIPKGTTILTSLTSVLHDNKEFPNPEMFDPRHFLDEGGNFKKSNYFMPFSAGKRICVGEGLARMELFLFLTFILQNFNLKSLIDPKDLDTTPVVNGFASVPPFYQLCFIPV
Sequence of Cytochrome P450 3A4 (P08684 whole entry): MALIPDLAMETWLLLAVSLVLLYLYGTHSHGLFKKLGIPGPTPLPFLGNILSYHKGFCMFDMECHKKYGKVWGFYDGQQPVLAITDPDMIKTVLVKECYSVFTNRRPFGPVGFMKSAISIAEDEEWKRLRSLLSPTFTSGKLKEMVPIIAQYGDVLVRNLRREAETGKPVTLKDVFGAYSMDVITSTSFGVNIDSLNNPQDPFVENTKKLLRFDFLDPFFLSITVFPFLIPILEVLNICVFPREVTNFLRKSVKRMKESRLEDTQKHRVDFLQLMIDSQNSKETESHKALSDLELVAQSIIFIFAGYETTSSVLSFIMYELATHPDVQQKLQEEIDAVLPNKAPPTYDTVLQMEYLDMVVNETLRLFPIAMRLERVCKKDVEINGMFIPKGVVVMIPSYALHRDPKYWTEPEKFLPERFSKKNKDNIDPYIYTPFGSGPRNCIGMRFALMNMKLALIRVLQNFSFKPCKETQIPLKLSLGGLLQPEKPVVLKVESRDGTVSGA
Sequence of Cytochrome P450 2C9 (P11712 whole entry): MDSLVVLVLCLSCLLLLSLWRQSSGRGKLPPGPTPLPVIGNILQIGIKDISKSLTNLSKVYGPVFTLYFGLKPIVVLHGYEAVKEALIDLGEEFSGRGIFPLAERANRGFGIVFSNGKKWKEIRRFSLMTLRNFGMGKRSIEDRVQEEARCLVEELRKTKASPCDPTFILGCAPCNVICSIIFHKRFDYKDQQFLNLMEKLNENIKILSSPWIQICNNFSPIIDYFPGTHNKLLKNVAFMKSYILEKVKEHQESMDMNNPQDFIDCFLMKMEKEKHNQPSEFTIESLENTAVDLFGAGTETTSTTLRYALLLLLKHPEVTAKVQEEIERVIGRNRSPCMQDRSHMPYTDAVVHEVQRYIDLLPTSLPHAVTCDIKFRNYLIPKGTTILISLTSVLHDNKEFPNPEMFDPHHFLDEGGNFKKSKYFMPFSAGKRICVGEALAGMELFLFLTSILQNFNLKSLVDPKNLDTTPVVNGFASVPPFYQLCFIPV

ED50 [1] [nM] | Activity [2] [%] | SMILES | further results
1200 | 72 | CCCCOc1ccc(C(CC(=O)O)c2ccccc2)cc1 (stereo not drawn) | –
> 10000 | 3 | CCCCOc1ccc(C(CC(=O)O)c2ccc(C(F)(F)F)cc2)cc1 (stereo not drawn) | –
7580 | 43 | COCCCOc1ccc(C(CC(=O)O)c2ccccc2)cc1 (stereo not drawn) | –
710 | 98 | CC[C@@H](C)COc1ccc(C(CC(=O)O)c2ccccc2)cc1 (stereo in doubt; 22(B,R)) | –
4800 | 68 | CCCOc1ccc(C(CC(=O)O)c2ccccc2)cc1 (stereo not drawn) | –
2710 | 75 | C/C=C/COc1ccc(C(CC(=O)O)c2ccccc2)cc1 (stereo not drawn) | –
1860 | 77 | CC(C)CCOc1ccc(C(CC(=O)O)c2ccccc2)cc1 (stereo not drawn) | –

More lines, now with the values behind:

SMILES | ED50 [1] [nM] | Activity [2] [%] | further results
CCCCCCOc1ccc(C(CC(=O)O)c2ccccc2)cc1 (stereo not drawn) | 2880 | 68 | Activity [3]: 137%
CCCCOc1ccc(C(CC(=O)O)c2cccc(F)c2)cc1 (stereo not drawn) | 1440 | 81 | –
CC[C@@H](C)COc1ccc(C(CC(=O)O)c2ccccc2)cc1 (stereo in doubt; 22(A,R)) | > 10000 | 3 | –
CCCCOc1ccc(C(CC(=O)O)c2cccc(C(F)(F)F)c2)cc1 (stereo not drawn) | 2840 | 75 | –
CCCCOc1ccc(C(CC(=O)O)c2ccccc2O)cc1 (stereo not drawn) | 4800 | 66 | –
CC[C@H](C)COc1ccc(C(CC(=O)O)c2ccccc2)cc1 (stereo in doubt; 22(B,S)) | 560 | 94 | –
CCCCOc1ccc(C(CC(=O)O)c2cccs2)cc1 (stereo not drawn) | 1290 | 79 | Activity [3]: 171%
CCCCCOc1cccc(C(CC(=O)O)c2ccccc2)c1 (stereo not drawn) | > 10000 | 6 | –
CCCCCOc1ccc(C(CC(=O)O)c2ccccc2)cc1 (stereo not drawn) | 2970 | 60 | Activity [3]: 122%
CCCCOc1ccc(C(CCCC(=O)O)c2ccccc2)cc1 (stereo not drawn) | > 10000 | 3 | –
CCC(CC)COc1ccc(C(CC(=O)O)c2ccccc2)cc1 (stereo not drawn) | 640 | 96 | Activity [3]: 155%; EC50 [4]: 2200 nM
CCCCC/C=C\C/C=C\CCCCCCCC(=O)O | – | – | Activity [3]: 172%; Activity [5]: 141%
CC[C@H](C)COc1ccc(C(CC(=O)O)c2ccccc2)cc1 (stereo in doubt; 22(A,S)) | > 10000 | 2 | –
O=C(O)CC(c1ccccc1)c1ccc(OCCCC(F)(F)F)cc1 (stereo not drawn) | 3160 | 72 | –
CCC(C)COc1ccc(C(CC(=O)O)c2ccccc2)cc1 (stereo not drawn) | 300 | 98 | IC50 [6]: > 22000 nM; IC50 [7]: > 22000 nM; IC50 [8]: > 22000 nM; IC50 [9]: > 22000 nM; IC50 [10]: > 22000 nM; Cmax [11]: 5780 ng/mL; Cmax [12]: 4760 ng/mL; Tmax [13]: 4.8 min; Tmax [14]: 0.5 h; AUC [15]: 2480 ng·h/mL; AUC [16]: 10700 ng·h/mL; half-life [17]: 4.78 h; half-life [18]: 6.33 h; clearance [19]: 13.8 mL/min/kg; bioavailability [20]: 87%
CCCCCCCOc1ccc(C(CC(=O)O)c2ccccc2)cc1 (stereo not drawn) | 4260 | 70 | –
C=C(C)CCOc1ccc(C(CC(=O)O)c2ccccc2)cc1 (stereo not drawn) | 2710 | 81 | –
